Source: patent US12263155B2, “Combinations of monoamine oxidase inhibitors and serotonin receptor agonists and their therapeutic use” (Remedi, Inc., priority 2022, dated 2025)

What was measured:
rat liver MAO-B = biological target: T1, rat liver MAO-B (Rattus norvegicus, UniProt P19643); test: In vitro inhibition of rat liver MAO-B; type: biochemical; conditions: 10 μM [14C]-PEA
T1 construct: from tissue; host or cells: rat liver
T1 sequence (P19643 1-520): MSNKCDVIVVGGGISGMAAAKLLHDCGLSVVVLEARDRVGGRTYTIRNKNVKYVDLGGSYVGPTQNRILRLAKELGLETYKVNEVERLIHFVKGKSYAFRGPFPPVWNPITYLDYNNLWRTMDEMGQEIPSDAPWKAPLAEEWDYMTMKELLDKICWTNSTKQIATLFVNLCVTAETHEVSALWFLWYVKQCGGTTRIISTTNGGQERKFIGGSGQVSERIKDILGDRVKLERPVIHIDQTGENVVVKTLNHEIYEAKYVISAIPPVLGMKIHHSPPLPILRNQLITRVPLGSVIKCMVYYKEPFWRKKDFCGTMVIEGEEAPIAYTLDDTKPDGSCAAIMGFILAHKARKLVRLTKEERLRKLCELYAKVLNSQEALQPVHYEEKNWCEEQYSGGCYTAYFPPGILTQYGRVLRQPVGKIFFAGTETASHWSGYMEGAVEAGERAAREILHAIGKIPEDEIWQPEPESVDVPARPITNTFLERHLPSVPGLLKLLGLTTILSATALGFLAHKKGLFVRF
Method: Methods: The soluble extract of the mitochondrial enriched fraction (P2 pellet), which was prepared from brain homogenates of male Sprague-Dawley rats, served as the source of MAO-A enzymatic activity. The P2 fraction was prepared and was stored frozen until being thawed for use on the day of assay. Final concentrations of 50 μM [^14C]-serotonin (5-HT) and 10 μM [^14C]-phenylethylamine (PEA) were employed as specific substrates for MAO-A and MAO-B, respectively. Test compound inhibition was based on competition for oxidation of these radio-labeled substrates. MAO-A assay specificity was enhanced by inclusion of 0.1 μM deprenyl to prevent substrate oxidation by MAO-B. Likewise, MAO-B assays included 0.1 μM clorgyline to block MAO-A activity. […] Inhibition of enzymatic activities was expressed as IC50 and as the Ki, which was calculated using the Cheng-Prusoff equation.

[1] = Phase I 14-day twice-daily pharmacokinetics; conditions: for concentration at 12 h: C12h
Method: Methods: The study was a Phase I, single-center, randomized, parallel-group, multiple-dose, placebo-controlled, pharmacodynamic, pharmacokinetic and safety study in healthy volunteers. To obtain 24 enrolled subjects, screening procedures and inclusion/exclusion criteria were evaluated for 54 subjects during a variable screening period of up to 28 days. Once enrolled, subjects were randomized to either CX157 10 mg, 20 mg or 40 mg or matching placebo administered twice daily for 14 consecutive days.
Formulations: Each natural/transparent Licaps® size 0 hard gelatin capsule contains 10 mg CX157 in Labrasol™; each capsule is banded with a green gelatin band comprised of gelatin NF and polysorbate-80 NF. CX157 Liquid Filled Capsules are packaged in white, opaque, high density polyethylene (HDPE) bottles with screw-top polypropylene child resistant caps. Each bottle contains 30 capsules. CX157 Liquid Filled Capsules, 5 and 10 mg are stored long-term at controlled room temperature conditions [15-30° C. (59-86° F.)].

MAO-B = biological target: T2, MAO-B (Homo sapiens, UniProt P27338)
T2 sequence (P27338 1-520): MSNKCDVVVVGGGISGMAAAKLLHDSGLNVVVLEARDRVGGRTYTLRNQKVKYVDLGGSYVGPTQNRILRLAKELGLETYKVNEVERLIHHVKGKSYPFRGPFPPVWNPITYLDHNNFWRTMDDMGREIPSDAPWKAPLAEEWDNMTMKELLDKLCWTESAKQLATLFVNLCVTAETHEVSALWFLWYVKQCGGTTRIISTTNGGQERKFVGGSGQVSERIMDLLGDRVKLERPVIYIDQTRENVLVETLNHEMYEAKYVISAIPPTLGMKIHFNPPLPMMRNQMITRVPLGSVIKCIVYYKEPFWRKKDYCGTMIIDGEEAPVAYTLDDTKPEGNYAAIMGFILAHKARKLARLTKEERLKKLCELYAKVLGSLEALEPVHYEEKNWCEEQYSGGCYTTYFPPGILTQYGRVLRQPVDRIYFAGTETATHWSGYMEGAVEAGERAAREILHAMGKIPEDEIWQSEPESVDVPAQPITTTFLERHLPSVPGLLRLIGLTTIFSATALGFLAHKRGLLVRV

[2] = healthy volunteers, 10 mg twice daily, Day 1, mean
[3] = healthy volunteers, 10 mg twice daily, Day 14, mean
[4] = healthy volunteers, 20 mg twice daily, Day 1, mean
[5] = healthy volunteers, 20 mg twice daily, Day 14, mean
[6] = healthy volunteers, 40 mg twice daily, Day 1, mean
[7] = healthy volunteers, 40 mg twice daily, Day 14, mean, N = 4
[8] = human, plasma, oral, 10 mg, healthy volunteers, 10 mg twice daily, Day 1, mean
[9] = human, plasma, oral, 10 mg, healthy volunteers, 10 mg twice daily, Day 14, mean
[10] = human, plasma, oral, 20 mg, healthy volunteers, 20 mg twice daily, Day 1, mean
[11] = human, plasma, oral, 20 mg, healthy volunteers, 20 mg twice daily, Day 14, mean
[12] = human, plasma, oral, 40 mg, healthy volunteers, 40 mg twice daily, Day 1, mean
[13] = human, plasma, oral, 40 mg, healthy volunteers, 40 mg twice daily, Day 14, mean, N = 4

SMILES: O=S1(=O)c2ccc(F)cc2Oc2cc(OCC(F)(F)F)ccc21 [CX157, 3-fluoro-7(2,2,2-trifluorethoxy)phenoxathiine-10,10-dioxide]
- inhibition of rat liver MAO-B (rat liver MAO-B): did not inhibit
- AUC0-12h/Dose [1, 2]: 380
- Cmax/Cmin [1, 2]: 31.4 ratio
- Cmax/Dose [1, 2]: 137
- Tmin [1, 2]: 10.7 h
- AUC0-12h/Dose [1, 3]: 753
- CSS [1, 3]: 8.1 ng/mL
- Cmax/Cmin [1, 3]: 6.64 ratio
- Cmax/Dose [1, 3]: 185
- Tmin [1, 3]: 12 h
- AUC0-12h/Dose [1, 4]: 312
- Cmax/Cmin [1, 4]: 36.7 ratio
- Cmax/Dose [1, 4]: 128
- Cmin [1, 4]: 1.13 ng/mL
- Tmin [1, 4]: 12 h
- AUC0-12h/Dose [1, 5]: 400
- Cmax/Cmin [1, 5]: 10.8 ratio
- Cmax/Dose [1, 5]: 104
- Cmin [1, 5]: 3.05 ng/mL
- Tmin [1, 5]: 12 h
- % AUCextrap ([1]; healthy volunteers, 20 mg twice daily, Day 14, mean, N = 2): 19.0c %
- AUC0-12h/Dose [1, 6]: 363
- Cmax/Cmin [1, 6]: 28.2 ratio
- Cmax/Dose [1, 6]: 136
- Cmin [1, 6]: 2.52 ng/mL
- Tmin [1, 6]: 12 h
- % AUCextrap [1, 7]: 16.5%
- AUC0-12h/Dose [1, 7]: 687
- CSS [1, 7]: 29.6 ng/mL
- Cmax/Cmin [1, 7]: 15.6 ratio
- Cmax/Dose [1, 7]: 320
- Cmin [1, 7]: 8.8 ng/mL
- Tmin [1, 7]: 12 h
- half-life ([1]; human, plasma, oral): 33.3 to 35.3 h
- AUC(0-t) ([1]; human, plasma, oral, 10 mg, AUC0-12h, healthy volunteers, 10 mg twice daily, Day 1, mean): 50 ng·h/mL
- AUC(0-t) ([1]; human, plasma, oral, 10 mg, AUC0-12h, healthy volunteers, 10 mg twice daily, Day 14, mean): 97 ng·h/mL
- AUC(0-t) ([1]; human, plasma, oral, 10 mg, AUClast, healthy volunteers, 10 mg twice daily, Day 14, mean): 180 ng·h/mL
- concentration at 12 h [1, 8]: 0.63 ng/mL
- concentration at 12 h [1, 9]: 3 ng/mL
- Cmax [1, 8]: 18.1 ng/mL
- Cmax [1, 9]: 24.2 ng/mL
- concentration at 1 day ([1]; human, plasma, oral, 10 mg, Cmin, healthy volunteers, 10 mg twice daily, Day 1, mean): 0.6 ng/mL
- concentration at 14 day ([1]; human, plasma, oral, 10 mg, Cmin, healthy volunteers, 10 mg twice daily, Day 14, mean): 3 ng/mL
- Tmax ([1]; human, plasma, oral, 10 mg, healthy volunteers, 10 mg twice daily, Day 1, median): 1 h
- Tmax ([1]; human, plasma, oral, 10 mg, healthy volunteers, 10 mg twice daily, Day 14, median): 1 h
- AUC(0-inf) ([1]; human, plasma, oral, 20 mg): 433 ng·h/mL
- half-life ([1]; human, plasma, oral, 20 mg): 33.3 h
- AUC(0-t) ([1]; human, plasma, oral, 20 mg, AUC0-12h, healthy volunteers, 20 mg twice daily, Day 1, mean): 83.5 ng·h/mL
- AUC(0-t) ([1]; human, plasma, oral, 20 mg, AUC0-12h, healthy volunteers, 20 mg twice daily, Day 14, mean): 115 ng·h/mL
- AUC(0-t) ([1]; human, plasma, oral, 20 mg, AUClast, healthy volunteers, 20 mg twice daily, Day 14, mean): 191 ng·h/mL
- concentration at 12 h [1, 10]: 1.13 ng/mL
- concentration at 12 h [1, 11]: 3.05 ng/mL
- concentration at 14 day ([1]; human, plasma, oral, 20 mg, CSS, healthy volunteers, 20 mg twice daily, Day 14, mean): 9.6 ng/mL
- Cmax [1, 10]: 32.3 ng/mL
- Cmax [1, 11]: 30.1 ng/mL
- Tmax ([1]; human, plasma, oral, 20 mg, healthy volunteers, 20 mg twice daily, Day 1, median): 1.25 h
- Tmax ([1]; human, plasma, oral, 20 mg, healthy volunteers, 20 mg twice daily, Day 14, median): 1.5 h
- AUC(0-inf) ([1]; human, plasma, oral, 40 mg): 712 ng·h/mL
- half-life ([1]; human, plasma, oral, 40 mg): 35.3 h
- AUC(0-t) ([1]; human, plasma, oral, 40 mg, AUC0-12h, healthy volunteers, 40 mg twice daily, Day 1, mean): 186 ng·h/mL
- AUC(0-t) ([1]; human, plasma, oral, 40 mg, AUC0-12h, healthy volunteers, 40 mg twice daily, Day 14, mean, N = 4): 355 ng·h/mL
- AUC(0-t) ([1]; human, plasma, oral, 40 mg, AUClast, healthy volunteers, 40 mg twice daily, Day 14, mean, N = 4): 602 ng·h/mL
- concentration at 12 h [1, 12]: 2.52 ng/mL
- concentration at 12 h [1, 13]: 8.8 ng/mL
- concentration at 14 day ([1]; human, plasma, oral, 40 mg, CSS, healthy volunteers, 40 mg twice daily, Day 14, mean, N = 4): 29.6 ± 19.6 ng/mL
- Cmax [1, 12]: 69.5 ng/mL
- Cmax [1, 13]: 166 ± 179 ng/mL
- Tmax ([1]; human, plasma, oral, 40 mg, healthy volunteers, 40 mg twice daily, Day 1, median): 1.08 h
- Tmax ([1]; human, plasma, oral, 40 mg, healthy volunteers, 40 mg twice daily, Day 14, median, N = 4): 0.5 h
- AUC(0-t) ([1]; human, plasma, oral, 40 mg, mean AUC0-12h, 40 mg twice daily, Day 14): 355 ± 235 ng·h/mL
- selectivity for MAO-A inhibition over MAO-B inhibition (MAO-B; human brain homogenates): > 1000 fold
- MAO-B inhibition (MAO-B; tested concentration 10 μM): no detectable MAO-B inhibition
